From ChEMBL document CHEMBL1201862, “PubChem BioAssay data set” (2004)
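Briefly, cells in 96-well plates were exposed to five compound concentrations for 48 h, and endpoints were estimated by linear interpolation. GI50 = concentration required for 50% inhibition of growth.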 Active and inactive are the calls of the source. Cut-off read from the data, not from the text of the source: active = GI50 up to about 1.1 µM and inactive = higher.

Assays:
Experiment in all cases: NCI anticancer screen, dose series, 48 h
DLD-1 = test system: DLD-1
HOP-18 = test system: HOP-18
XF498 = test system: XF498
KM-20L2 = test system: KM-20L2
LXFL 529 = test system: LXFL 529
DMS-114 = test system: DMS-114
DMS-273 = test system: DMS-273
M19-MEL = test system: M19-MEL
RXF 631 = test system: RXF 631

Row | Structure (SMILES) | GI50 (DLD-1) | GI50 (HOP-18) | GI50 (XF498) | GI50 (KM-20L2) | GI50 (LXFL 529) | GI50 (DMS-114) | GI50 (DMS-273) | GI50 (M19-MEL) | GI50 (RXF 631)
1 | N#CC1C[C@@H]2CC3(CCC2CN1C(=O)c1ccccc1)OCCO3 (stereo partly drawn) | > 100 µM (inactive) | > 100 µM (inactive) | > 100 µM (inactive) | > 100 µM (inactive) | > 100 µM (inactive) | > 100 µM (inactive) | > 100 µM (inactive) | > 100 µM (inactive) | –
2 | COc1ccc(C(=O)C(c2ccc(OC)cc2)C2(O)C(=O)Nc3ccc([N+](=O)[O-])cc32)cc1 (stereo not drawn) | > 100 µM (inactive) | – | – | > 100 µM (inactive) | > 100 µM (inactive) | 48.8 µM (inactive) | > 100 µM (inactive) | > 100 µM (inactive) | –
3 | Clc1ccc(C2=NOC(C3CCCCC3)C2)cc1 (stereo not drawn) | > 100 µM (inactive) | > 100 µM (inactive) | – | – | > 100 µM (inactive) | > 100 µM (inactive) | > 100 µM (inactive) | > 100 µM (inactive) | –
4 | O=C(CP(=O)(O)O)c1cccs1 | > 100 µM (inactive) | > 100 µM (inactive) | – | > 100 µM (inactive) | > 100 µM (inactive) | > 100 µM (inactive) | > 100 µM (inactive) | > 100 µM (inactive) | –
5 | CCOc1cc2c(cnc3c4cc(OC)c(OC)cc4ccc23)cc1OC | > 100 µM (inactive) | – | > 100 µM (inactive) | > 100 µM (inactive) | > 100 µM (inactive) | > 100 µM (inactive) | – | > 100 µM (inactive) | –
6 | COc1cc2cc3c4c(cc(OC)c(OC)c4c2cc1OC)CCN3C(=O)OCCN1CCNCC1 | 15.2 µM (inactive) | 17 µM (inactive) | 15.3 µM (inactive) | 11.8 µM (inactive) | 15.1 µM (inactive) | – | 13.5 µM (inactive) | 6.95 µM (inactive) | –
7 | NC(=O)c1ncn2c(=O)n(CCCl)nnc12 [MITOZOLOMIDE] | 182 µM (inactive) | 323 µM (inactive) | 12.1 µM (inactive) | 141 µM (inactive) | > 100 µM (inactive) | 19.8 µM (inactive) | 57.4 µM (inactive) | 172 µM (inactive) | –
8 | COc1ccc2c(c1)CCc1cnn(C3OC(COC(C)=O)C(OC(C)=O)C(OC(C)=O)C3OC(C)=O)c1-2 (stereo not drawn) | 46.8 µM (inactive) | – | 22.6 µM (inactive) | 22.5 µM (inactive) | 19.1 µM (inactive) | 65.6 µM (inactive) | > 100 µM (inactive) | 66.2 µM (inactive) | > 100 µM (inactive)
9 | CCOC(=O)[C@H]1CSC[C@@H](C(=O)OC)N1 | > 100 µM (inactive) | – | – | – | > 100 µM (inactive) | > 100 µM (inactive) | > 100 µM (inactive) | > 100 µM (inactive) | –
10 | O=C1CC(S(=O)(=O)O)C=C1Nc1cccc(Cl)c1 (stereo not drawn) | > 100 µM (inactive) | > 100 µM (inactive) | > 100 µM (inactive) | > 100 µM (inactive) | > 100 µM (inactive) | – | > 100 µM (inactive) | > 100 µM (inactive) | –
11 | O=C1CCCCC1C1(O)C(=O)Nc2cc(F)ccc21 (stereo not drawn) | > 100 µM (inactive) | > 100 µM (inactive) | > 100 µM (inactive) | > 100 µM (inactive) | > 100 µM (inactive) | > 100 µM (inactive) | > 100 µM (inactive) | > 100 µM (inactive) | –
12 | CN/N=C(/CCN1CCCC1)CC(c1ccccc1)c1c(O)c2ccccc2oc1=O (stereo not drawn) | > 100 µM (inactive) | > 100 µM (inactive) | > 100 µM (inactive) | > 100 µM (inactive) | > 100 µM (inactive) | > 100 µM (inactive) | > 100 µM (inactive) | > 100 µM (inactive) | > 100 µM (inactive)
13 | CCOC(=O)/C=C/c1ccccn1 | > 100 µM (inactive) | > 100 µM (inactive) | > 100 µM (inactive) | – | > 100 µM (inactive) | > 100 µM (inactive) | – | > 100 µM (inactive) | > 100 µM (inactive)
14 | O=C1CCSC2=C1SCc1sccc12 | > 100 µM (inactive) | – | > 100 µM (inactive) | > 100 µM (inactive) | > 100 µM (inactive) | > 100 µM (inactive) | – | > 100 µM (inactive) | –
15 | CCOC(=O)C(C[Si](C)(C)C)P(=O)(OCC)OCC (stereo not drawn) | > 100 µM (inactive) | – | > 100 µM (inactive) | > 100 µM (inactive) | > 100 µM (inactive) | > 100 µM (inactive) | > 100 µM (inactive) | > 100 µM (inactive) | > 100 µM (inactive)
16 | CC(=O)Nc1ccc(/C=C2\N=C(c3ccccc3)OC2=O)cc1 | > 100 µM (inactive) | > 100 µM (inactive) | – | > 100 µM (inactive) | > 100 µM (inactive) | 1 µM (active) | – | – | –
17 | Cc1cccc(C)c1NC(=O)CCCC(=O)C1CCC/C1=N\NC(=O)C(=O)NN (stereo not drawn) | > 100 µM (inactive) | > 100 µM (inactive) | > 100 µM (inactive) | > 100 µM (inactive) | > 100 µM (inactive) | > 100 µM (inactive) | > 100 µM (inactive) | – | > 100 µM (inactive)
18 | O=C1CCCc2c(O)ccc(O)c21 | > 100 µM (inactive) | > 100 µM (inactive) | – | > 100 µM (inactive) | 44 µM (inactive) | 19.9 µM (inactive) | > 100 µM (inactive) | 93.5 µM (inactive) | –
19 | CN(C)NC(=S)NC12CC3CC(CC(C3)C1)C2 | > 100 µM (inactive) | > 100 µM (inactive) | > 100 µM (inactive) | > 100 µM (inactive) | > 100 µM (inactive) | > 100 µM (inactive) | > 100 µM (inactive) | > 100 µM (inactive) | –
20 | COc1cccc(C=O)c1[O-].COc1cccc(C=O)c1[O-].[Zn+2] | 47 µM (inactive) | 40.9 µM (inactive) | – | > 100 µM (inactive) | 45.3 µM (inactive) | 51.6 µM (inactive) | 60.5 µM (inactive) | 31.8 µM (inactive) | –
21 | CCCC(=O)CC(C)C(=O)C(=O)NC12CC3CC(CC(C3)C1)C2 (stereo not drawn) | > 100 µM (inactive) | > 100 µM (inactive) | > 100 µM (inactive) | > 100 µM (inactive) | – | – | > 100 µM (inactive) | – | –
22 | CCOC1C(Br)Cn2c(=O)c3cc4ccccc4cc3c(=O)n2C1C (stereo not drawn) | 54.3 µM (inactive) | – | 31 µM (inactive) | 68.9 µM (inactive) | 35.8 µM (inactive) | 44.8 µM (inactive) | 40.6 µM (inactive) | 55.6 µM (inactive) | –
23 | O=S1(=O)c2ccccc2NC(c2ccc3ccccc3c2)CC1c1ccccc1F (stereo not drawn) | > 100 µM (inactive) | 22.1 µM (inactive) | > 100 µM (inactive) | > 100 µM (inactive) | – | – | > 100 µM (inactive) | > 100 µM (inactive) | > 100 µM (inactive)
24 | COc1ccccc1C1c2cc3c(cc2OC(O)(CO)C1C(=O)O)OCO3.COc1ccccc1C1c2cc3c(cc2OC2(O)COC(=O)C12)OCO3 (stereo not drawn) | > 100 µM (inactive) | > 100 µM (inactive) | – | > 100 µM (inactive) | > 100 µM (inactive) | > 100 µM (inactive) | > 100 µM (inactive) | > 100 µM (inactive) | –
25 | O=C1NC(O)n2c(=O)[nH]c(=O)n21 (stereo not drawn) | > 100 µM (inactive) | > 100 µM (inactive) | > 100 µM (inactive) | > 100 µM (inactive) | > 100 µM (inactive) | – | > 100 µM (inactive) | > 100 µM (inactive) | > 100 µM (inactive)
26 | Cc1cc(N(CCC#N)CCC#N)ccc1/C=C1N=C(/C=C\c2ccccc2)N(c2ccc(Cl)cc2)C\1=O | – | > 100 µM (inactive) | > 100 µM (inactive) | – | – | 2.13 µM (inactive) | 0.288 µM (active) | 1.57 µM (inactive) | –
27 | CC(N)Cc1ccc(Cl)c(Cl)c1 (stereo not drawn) | 34.4 µM (inactive) | 27.8 µM (inactive) | 10.9 µM (inactive) | 22.9 µM (inactive) | 19.1 µM (inactive) | 24.2 µM (inactive) | 39.4 µM (inactive) | 24.2 µM (inactive) | –
28 | CC(=O)N(N=O)c1ccc(N(N=O)C(C)=O)cc1 | > 100 µM (inactive) | – | – | > 100 µM (inactive) | > 100 µM (inactive) | > 100 µM (inactive) | > 100 µM (inactive) | > 100 µM (inactive) | –
29 | C=CN1C(=O)OC[C@@H]1c1ccccc1 | > 100 µM (inactive) | > 100 µM (inactive) | 83 µM (inactive) | > 100 µM (inactive) | > 100 µM (inactive) | 34.5 µM (inactive) | 20 µM (inactive) | > 100 µM (inactive) | > 100 µM (inactive)
